The values that follow come from ChEMBL document CHEMBL1201862, “PubChem BioAssay data set” (2004).

Holding throughout (test): growth of human tumour cells (NCI), 48 h
For assay [1], the system named is U-251.
Assay [2] concerns SN12C.
Assay [3] deals with HCT-116.
The subject of assay [4] is OVCAR-8.
Assay [5] concerns SF-268.
In assay [6] the test system is HT-29.
For assay [7], the system named is NCI-H23.
In assay [8] the test system is SNB-19.
Assay [9] relates to RPMI-8226.
The subject of assay [10] is UO-31.
For assay [11], the system named is SF-295.
Assay [12] concerns SK-MEL-28.
The subject of assay [13] is HOP-62.
In assay [14] the test system is RXF 393.
Assay [15] relates to SW-620.
Assay [16] relates to CAKI-1.
The test system of assay [17] is NCI-H460.
The subject of assay [18] is LOX IMVI.
Assay [19] has as its system SK-MEL-5.
Assay [20] deals with M14.

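Method: 48-hour compound exposure of cells in 96-well plates, five concentrations, linear interpolation of endpoints. At the GI50, growth is halved.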 Active and inactive are the calls of the source. Rule as the data show it: active = GI50 up to about 1.1 µM and inactive = higher.

Regarding `CC(C)=C1C2CC3(C)CCC2(C)CCC13.CC1=CCC2C3(C)CCC2(C(C)C)C1C3` (stereo not given), the GI50 was 23.4 µM (inactive) in assay [1]; 18.2 µM (inactive) in assay [2]; 31.6 µM (inactive) in [3]; 17.3 µM (inactive) in assay [4]; 19.3 µM (inactive) in assay [5]; 16.2 µM (inactive) in assay [6]. Also, the GI50 in assay [7] was 38.3 µM (inactive); in [8], 18.4 µM (inactive); in assay [9], 24.9 µM (inactive); in [10], 26.7 µM (inactive); in assay [11], 20 µM (inactive); in assay [12], 34.2 µM (inactive). Moreover, the GI50 was 22.3 µM (inactive) in assay [13]; 17.8 µM (inactive) in assay [14]; 23.7 µM (inactive) in [15]; 17.3 µM (inactive) in assay [16]; 17.2 µM (inactive) in assay [17]; 28.8 µM (inactive) in [18]. The GI50 was 10 µM (inactive) in [19] and 20.1 µM (inactive) in assay [20].

Turning to `COC(=O)[C@@H](NC(=O)[C@H](N)Cc1ccc(N(CCCl)CCCl)cc1)C(C)C`, the GI50 in [1] was 19.4 µM (inactive); in assay [2] it was 13.9 µM (inactive); in [3], 15 µM (inactive); in assay [4], 7.06 µM (inactive); in [5] it was 10.6 µM (inactive); in assay [6], 24.6 µM (inactive). The GI50 in assay [7] is 3.66 µM (inactive); in assay [8], > 54.1 µM (inactive); in assay [9] it was 5.3 µM (inactive); in assay [10], 12 µM (inactive); in assay [11] it was 18.7 µM (inactive); in assay [12], 11.9 µM (inactive). Also, the GI50 in assay [13] is 19.9 µM (inactive); in assay [14], 12 µM (inactive); in [15], 11 µM (inactive); in assay [16], 0.481 µM (active); in assay [17] it was 10.1 µM (inactive); in [18], 5.97 µM (inactive). Also, the GI50 was 1.78 µM (inactive) in assay [19] and 8.17 µM (inactive) in [20].

Turning to `O=C(Nc1ccccc1Br)c1cccc([N+](=O)[O-])c1O`, the GI50 was 2.85 µM (inactive) in assay [1]; 3.94 µM (inactive) in [2]; 3.84 µM (inactive) in assay [3]; 4.16 µM (inactive) in assay [4]; 4.47 µM (inactive) in [5]; 4.73 µM (inactive) in [6]. Besides, the GI50 in assay [7] was 2.5 µM (inactive); in [8], 3.81 µM (inactive); in assay [9], 1.52 µM (inactive); in assay [10], 1.89 µM (inactive); in [11] it was 3.87 µM (inactive); in assay [12] it was 4.37 µM (inactive). In addition, the GI50 is 2.32 µM (inactive) in assay [13]; 1.86 µM (inactive) in assay [14]; 6.81 µM (inactive) in assay [15]; 3.37 µM (inactive) in assay [16]; 4.6 µM (inactive) in assay [17]; 2.38 µM (inactive) in assay [18]. The GI50 is 2.16 µM (inactive) in assay [19] and 4.32 µM (inactive) in [20].

`CC1(C)[C@@H]2C[C@H]1C(Cc1ccccc1C[C@H]1c3cc(-c4ccccn4)ncc3[C@H]3C[C@@H]1C3(C)C)c1cc(-c3ccccn3)ncc12` (stereo not given in full): the GI50 in assay [1] is 0.324 µM (active); in [2], 0.479 µM (active); in assay [3] it was 0.342 µM (active); in [4], 0.378 µM (active); in [5], 0.292 µM (active); in [6], 0.371 µM (active). In addition, the GI50 in [7] was 0.726 µM (active); in assay [8], 0.611 µM (active); in assay [9] it was 0.348 µM (active); in assay [10] it was 0.312 µM (active); in assay [11] it was 0.408 µM (active); in assay [12] it was 0.527 µM (active). Besides, the GI50 is 0.147 µM (active) in assay [13]; 0.714 µM (active) in [14]; 0.6 µM (active) in [15]; 0.568 µM (active) in assay [16]; 0.337 µM (active) in assay [17]; 0.361 µM (active) in [18]. Also, the GI50 in assay [19] was 0.0834 µM (active); in assay [20] it was 0.28 µM (active).

Turning to `CCN1C(=O)C(=Cc2ccc(-c3ccccc3)cc2)C(=O)N(CC)C1=S`, the GI50 in assay [1] is 75.2 µM (inactive); in [2] it was > 100 µM (inactive); in assay [3], 97.3 µM (inactive); in assay [4], > 100 µM (inactive); in [5], > 100 µM (inactive); in assay [6], > 100 µM (inactive). In addition, the GI50 in assay [7] is > 100 µM (inactive); in assay [8] it was > 100 µM (inactive); in [9], > 100 µM (inactive); in assay [10], 79.4 µM (inactive); in [11], > 100 µM (inactive); in [12], > 100 µM (inactive). In addition, the GI50 in assay [13], in assay [14], in assay [15], in assay [16], in [17] and in [18] was > 100 µM (inactive) throughout. For the same compound, the GI50 in [19] and in assay [20] was > 100 µM (inactive) throughout.
